According to ChEMBL document CHEMBL1165939, “A structure-activity relationship study elucidating the mechanism of sequence-specific collagen recognition by the chaperone HSP47” (Bioorg Med Chem, 2010):

Target: T1, Serpin H1 (Mus musculus, UniProt P19324)
T1 sequence (P19324 whole entry): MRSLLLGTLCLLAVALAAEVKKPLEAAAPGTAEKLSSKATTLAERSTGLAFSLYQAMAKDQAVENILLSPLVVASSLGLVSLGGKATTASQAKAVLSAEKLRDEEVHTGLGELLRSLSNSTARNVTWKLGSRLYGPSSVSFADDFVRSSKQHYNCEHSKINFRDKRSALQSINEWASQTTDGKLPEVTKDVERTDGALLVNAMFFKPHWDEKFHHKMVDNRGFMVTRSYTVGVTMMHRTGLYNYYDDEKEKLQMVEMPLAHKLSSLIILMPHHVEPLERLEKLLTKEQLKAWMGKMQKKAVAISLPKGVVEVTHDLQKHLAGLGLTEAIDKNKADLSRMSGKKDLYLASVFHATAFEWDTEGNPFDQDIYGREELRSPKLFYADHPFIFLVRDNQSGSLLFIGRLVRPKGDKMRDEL
Assay: Binding affinity to mouse recombinant HSP47 expressed in Escherichia coli JM109 after 10 mins by surface plasmon resonance assay

- IC50: > 100 µM
Compound: N=C(N)NCCC[C@H](NC(=O)[C@@H]1CCCN1C(=O)CNC(=O)[C@H](CCC(=O)O)NC(=O)[C@@H]1CCCN1C(=O)CNC(=O)[C@@H]1CCCN1C(=O)[C@@H]1CCCN1C(=O)CNC(=O)[C@@H]1C[C@@H](O)CN1C(=O)[C@@H]1CCCN1)C(=O)NCC(=O)N1CCC[C@H]1C(=O)N[C@@H](CCCNC(=N)N)C(=O)NCC(=O)N1CCC[C@H]1C(=O)N1CCC[C@H]1C(=O)NCC(=O)N1CCC[C@H]1C(=O)N1CCC[C@H]1C(=O)NCC(=O)N1CCC[C@H]1C(=O)N1CCC[C@H]1C(=O)NCC(=O)N1CCC[C@H]1C(=O)N1CCC[C@H]1C(=O)NCC(N)=O
